From US20230312605A1, “PYRROLO[2,1-F][1,2,4]TRIAZINES AND PREPARATION AND USES THEREOF” (BioSplice Therapeutics, Inc., priority 2021, published 2023)

The molecules below were run against recombinant DYRK1A kinase (Homo sapiens (Human), UniProt Q13627) (assay: DYRK1A kinase assay (Ser/Thr 18 peptide Z-lyte FRET assay)). Settings: recombinant DYRK1A 0.25 µg/mL, ATP 15 µM, Ser/Thr peptide 18 4 µM, one hour at room temperature; table head prints EC50, method says IC50.
Type: biochemical
Procedure: Representative compounds were screened using the assay procedure for DYRK1A kinase activity as described below.
Each compound was dissolved in DMSO as a 10 mM stock and used to prepare compound source plates. Serial dilution (1:3, 11-point dose-response curves from 10 µM to 0.00016 µM) and compound transfer was performed using the ECHO 550 (Labcyte, Sunnyvale, CA) into 1536-well black-walled round bottom plates (Corning).
The DYRK1A kinase assay was run using the Ser/Thr 18 peptide Z-lyte assay kit according to manufacturer’s instructions (Life Technologies- a Division of Thermo-Fisher). This is a non-radioactive assay using fluorescence resonance energy transfer (FRET) between coumarin and fluorescein to detect kinase activity which is represented as a ratio of coumarin emission/fluorescein emission.
Briefly, recombinant DYRK1A kinase, ATP and Ser/Thr peptide 18 were prepared in 1X Kinase buffer to final concentrations of 0.25 µg/mL, 15 µM, and 4 µM respectively. The mixture was allowed to incubate with the representative compounds for one hour at room temperature. All reactions were performed in duplicate. Unphosphorylated (“0% Control”) and phosphorylated (“100% control”) forms of Ser/Thr 18 served as control reactions. Additionally, an 11-point dose-response curve of Staurosporine (1uM top) was run to serve as a positive compound control.
After incubation, Development Reagent A was diluted in Development Buffer then added to the reaction and allowed to further incubate for one hour at room temperature. The plate was read at Ex 400 Em 455 to detect the coumarin signal and Ex 400 Em 520 to measure the signal (EnVision Multilabel Plate Reader, PerkinElmer).
The Emission ratio (Em) was calculated as a ratio of the coumarin (C) emission signal (at 445 nm)/Fluorescein (F) emission signal (at 520 nm). The percent phosphorylation was then calculated using the following formula: [1 — ((Em ratio X F100%)—C100%)/ ((C0%—C100%) + (Em ratio X (F100% - F0%)))]. Dose-response curves were generated, and inhibitory concentration (IC50) values were calculated using non-linear regression curve fit in the Dotmatics’ Studies Software (Bishops Stortford, UK).

| Molecule | EC50 [nM] |
| --- | --- |
| Cc1nc2ccc(-c3ccn4nc(N[C@H]5CCN(C6COC6)C[C@H]5F)ncc34)nc2n1CC(F)F [Compound 1955, 5-(3-(2,2-Difluoroethyl)-2-methyl-3H-imidazo[4,5-b]pyridin-5-yl)-N-((3R,4S)-3-fluoro-1-(oxetan-3-yl)piperidin-4-yl)pyrrolo[2,1-f][1,2,4]triazin-2-amine] | 4 |
| CN1CCC(Nc2ncc3c(-c4cnc5nccn5c4)ccn3n2)CC1 [Compound 279, 5-(Imidazo[1,2-a]pyrimidin-6-yl)-N-(1-methylpiperidin-4-yl)pyrrolo[2,1-f][1,2,4]triazin-2-amine] | 49 |
| Cc1nc2ncc(-c3ccn4nc(N[C@H]5CC[C@@H](O)CC5)ncc34)cc2n1CC(F)F [Compound 683, cis-4-((5-(1-(2,2-Difluoroethyl)-2-methyl-1H-imidazo[4,5-b]pyridin-6-yl)pyrrolo[2,1-f][1,2,4]triazin-2-yl)amino)cyclohexan-1-ol] | 6 |
| COCCO[C@H]1C[C@@H](Nc2ncc3c(-c4cnc5nccn5c4)ccn3n2)C1 [Compound 244, 5-(Imidazo[1,2-a]pyrimidin-6-yl)-N-(cis-3-(2-methoxyethoxy)cyclobutyl) pyrrolo[2,1-f] [1,2,4]triazin-2-amine] | 5 |
| Cc1nc2ccc(-c3ccn4nc(N[C@H]5CC[C@@H](N6CCOCC6)CC5)ncc34)nc2n1CC(F)F [Compound 1125, 5-(3-(2,2-Difluoroethyl)-2-methyl-3H-imidazo[4,5-b]pyridin-5-yl)-N-(cis-4-morpholinocyclohexyl)pyrrolo[2,1-f][1,2,4]triazin-2-amine] | 18 |
| Cc1nc2ccc(-c3ccn4nc(N[C@H]5CC[C@@](C)(O)CC5)ncc34)nc2n1CC(C)C [Compound 1829, cis-4-((5-(3-Isobutyl-2-methyl-3H-imidazo[4,5-b]pyridin-5-yl)pyrrolo[2,1-f] [1,2,4]triazin-2-yl)amino)-1-methylcyclohexan-1-ol] | 33 |
| Cc1nc2ncc(-c3ccn4nc(N[C@H]5CC[C@@](C)(O)CC5)ncc34)cc2n1CC(F)F [Compound 684, cis-4-((5-(1-(2,2-Difluoroethyl)-2-methyl-1H-imidazo[4,5-b]pyridin-6-yl)pyrrolo[2,1-f][1,2,4]triazin-2-yl)amino)-1-methylcyclohexan-1-ol] | 4 |
| CN1CC2(CC(Nc3ncc4c(-c5ccc6ncccc6c5)ccn4n3)C2)C1 [Compound 1348, N-(2-Methyl-2-azaspiro[3.3]heptan-6-yl)-5-(quinolin-6-yl)pyrrolo[2,1-f] [1,2,4]triazin-2-amine] | 5 |
| Cc1nc2ccc(-c3ccn4nc(N[C@H](C)CO)ncc34)nc2n1CC(F)F [Compound 1830, (R)-2-((5-(3-(2,2-Difluoroethyl)-2-methyl-3H-imidazo[4,5-b]pyridin-5-yl)pyrrolo[2,1-f][1,2,4]triazin-2-yl)amino)propan-1-ol] | 16 |
| Cc1nc2ncc(-c3ccn4nc(N[C@H]5CC[C@@H](OCC(F)F)CC5)ncc34)cc2n1CC(F)F [Compound 1877] | 2 |
| [2H]C([2H])([2H])O[C@H]1CC[C@@H](Nc2ncc3c(-c4ccc5nc(C)n(CC(F)F)c5n4)ccn3n2)CC1 [Compound 1803, 5-(3-(2,2-Difluoroethyl)-2-methyl-3H-imidazo[4,5-b]pyridin-5-yl)-N-(cis-4-(methoxy-d3)cyclohexyl)pyrrolo[2,1-f][1,2,4]triazin-2-amine] | 3 |
| C[C@]1(O)CC[C@@H](Nc2ncc3c(-c4cnc5ncccc5c4)ccn3n2)CC1 [Compound 1536, (1 s,4s)-4-((5-(1,8 -Naphthyridin-3-yl)pyrrolo [2,1-f] [1,2,4]triazin-2-yl)amino)-1-methylcyclohexan-1-ol] | 5 |

Further molecules by falling EC50, results first:

| EC50 [nM] | Molecule |
| --- | --- |
| 498 | Cc1nc2ccc(-c3ccn4nc(N[C@H]5CC[C@@](C)(O)CC5)ncc34)nc2n1CC(=O)N(C)C [Compound 1872, 2-(5-(2-((cis-4-Hydroxy-4-methylcyclohexyl)amino)pyrrolo[2,1-f][1,2,4]triazin-5-yl)-2-methyl-3H-imidazo[4,5-b]pyridin-3-yl)-N,N-dimethylacetamide] |
| 72 | Cc1nc2ccc(-c3ccn4nc(NC5CCOCC5)ncc34)nc2n1CC(C)(C)O [Compound 1871, 2-Methyl-1-(2-methyl-5-(2-((tetrahydro-2H-pyran-4-yl)amino)pyrrolo[2,1-f][1,2,4]triazin-5-yl)-3H-imidazo[4,5-b]pyridin-3-yl)propan-2-ol] |
| 33 | CCOC(=O)[C@H]1CC[C@@H](Nc2ncc3c(-c4ccc5nc(C)n(CC(F)F)c5n4)ccn3n2)CC1 [Compound 1843, Ethyl cis-4-((5-(3-(2,2-difluoroethyl)-2-methyl-3H-imidazo[4,5-b]pyridin-5-yl)pyrrolo[2,1-f][1,2,4]triazin-2-yl)amino)cyclohexane-1-carboxylate] |
| 14 | C[C@]1(O)CC[C@H](Nc2ncc3c(-c4ccc5nnn(CC(F)F)c5c4)ccn3n2)CC1 [Compound 1890, trans-4-((5-(1-(2,2-Difluoroethyl)-1H-benzo[d][1,2,3]triazol-6-yl)pyrrolo [2,1-f][1,2,4]triazin-2-yl)amino)-1-methylcyclohexan-1-o1] |
| 13 | c1cn2cc(-c3ccn4nc(NC5CC6(CNC6)C5)ncc34)cnc2n1 [Compound 1732, 5-(Imidazo[1,2-a]pyrimidin-6-yl)-N-(2-azaspiro[3.3]heptan-6-yl)pyrrolo[2,1-f][1,2,4]triazin-2-amine] |
| 10 | C[C@]1(O)CC[C@@H](Nc2ncc3c(-c4cnc5nccn5c4)ccn3n2)CC1 [Compound 258, (1s,4s)-4-((5-(Imidazo [1,2-a]pyrimidin-6-yl)pyrrolo[2,1-f] [1,2,4]triazin-2-yl)amino)-1-methylcyclohexan-1-ol] |
| 9 | Cc1nc2ccc(-c3ccn4nc(N[C@H]5CC[C@@](C)(O)CC5)ncc34)nc2n1CC(F)(F)F [Compound 1868, cis-1-Methyl-4-((5-(2-methyl-3-(2,2,2-trifluoroethyl)-3H-imidazo[4,5-b]pyridin-5-yl)pyrrolo[2,1-f] [1,2,4]triazin-2-yl)amino)cyclohexan-1-ol] |
| 7 | Cc1nc2ccc(-c3ccn4nc(NC5CCN(C(=O)[C@H]6CC6(F)F)CC5)ncc34)nc2n1CC(F)F [Compound 1918, (R)-(2,2-Difluorocyclopropyl)(4-((5-(3-(2,2-difluoroethyl)-2-methyl-3H-imidazo[4,5-b]pyridin-5-yl)pyrrolo[2,1-f] [1,2,4]triazin-2-yl)amino)piperidin-1-yl)methanone] |
| 6 | Cc1nc2ccc(-c3ccn4nc(N[C@@H]5CN(C)C[C@H]5F)ncc34)nc2n1CC(F)F [Compound 1902] |
| 6 | Cc1nc2ccc(-c3ccn4nc(N[C@H]5CCN(C)C[C@@H]5F)ncc34)nc2n1CC(F)F [Compound 1855, 5-(3-(2,2-Difluoroethyl)-2-methyl-3H-imidazo[4,5-b]pyridin-5-yl)-N-((3S,4S)-3-fluoro-1-methylpiperidin-4-yl)pyrrolo[2,1-f][1,2,4]triazin-2-amine] |
| 5 | CC(=O)N1CC[C@@H](Nc2ncc3c(-c4ccc5nc(C)n(CC(F)F)c5n4)ccn3n2)[C@@H](F)C1 [Compound 1951, 1-((3S,4R)-4-((5-(3-(2,2-Difluoroethyl)-2-methyl-3H-imidazo[4,5-b]pyridin-5-yl)pyrrolo[2,1-f] [1,2,4]triazin-2-yl)amino)-3-fluoropiperidin-1-yl)ethan-1-one] |
| 5 | Cc1nc2ncc(-c3ccn4nc(N[C@H]5CC[C@@H](OC(F)(F)F)CC5)ncc34)cc2n1CC(F)F [Compound 1786, 5-(1-(2,2-Difluoroethyl)-2-methyl-1H-imidazo[4,5-b]pyridin-6-yl)-N-(cis-4-(trifluoromethoxy)cyclohexyl)pyrrolo[2,1-f][1,2,4]triazin-2-amine] |
| 4 | 1-(4-((5-(1-(2,2-Difluoroethyl)-2-methyl-1H-imidazo[4,5-b]pyridin-6-yl)pyrrolo[2, 1-f] [1,2,4]triazin-2-yl)amino)piperidin- 1-yl)ethan-1 -one [Compound 1910] |
| 3 | Cc1nc2ccc(-c3ccn4nc(N[C@H]5C[C@](C)(O)C5)ncc34)nc2n1CC(F)F [Compound 1835, trans-3-((5-(3-(2,2-Difluoroethyl)-2-methyl-3H-imidazo[4,5-b]pyridin-5-yl)pyrrolo[2,1-f][1,2,4]triazin-2-yl)amino)-1-methylcyclobutan-1-ol] |
| 3 | COCCO[C@H]1C[C@@H](Nc2ncc3c(-c4ccc5ncccc5c4)ccn3n2)C1 [Compound 1309, N-(cis-3-(2-Methoxyethoxy)cyclobutyl)-5-(quinolin-6-yl)pyrrolo[2,1-f][1,2,4]triazin-2-amine] |
| 2 | [2H]C([2H])([2H])O[C@H]1CC[C@@H](Nc2ncc3c(-c4cnc5nc(C)n(CC(F)F)c5c4)ccn3n2)CC1 [Compound 1876] |
